# ± gives the expanded uncertainty stated by the source.
# What was measured:
# [1] = molar heat capacity at constant pressure; settings: 101.33 kPa, Liquid
# [2] = for surface tension liquid-gas: Maximal bubble pressure; for viscosity / mass density / thermal conductivity: 101.33 kPa; for viscosity / mass density / thermal conductivity / vapor or sublimation pressure: Liquid; for thermal conductivity: Hot wire method
smiles,measurement,setting,value
C[Si]1(C)O[Si](C)(C)O[Si](C)(C)O[Si](C)(C)O[Si](C)(C)O1 [decamethylcyclopentasiloxane],molar heat capacity at constant pressure,[1]; 288.78 K,636.3 ± 4.9 J/K/mol
same,molar heat capacity at constant pressure,[1]; 293.13 K,638.5 ± 4.9 J/K/mol
same,molar heat capacity at constant pressure,[1]; 297.95 K,640.6 ± 5 J/K/mol
same,molar heat capacity at constant pressure,[1]; 303.18 K,643.1 ± 5 J/K/mol
same,molar heat capacity at constant pressure,[1]; 308.95 K,644.5 ± 5 J/K/mol
same,molar heat capacity at constant pressure,[1]; 313.15 K,647.7 ± 5 J/K/mol
same,molar heat capacity at constant pressure,[1]; 319 K,650.4 ± 5 J/K/mol
same,molar heat capacity at constant pressure,[1]; 323.15 K,652.4 ± 5.1 J/K/mol
same,molar heat capacity at constant pressure,[1]; 329.05 K,655.1 ± 5.1 J/K/mol
same,molar heat capacity at constant pressure,[1]; 334.74 K,657.9 ± 5.1 J/K/mol
same,molar heat capacity at constant pressure,[1]; 338.5 K,659.5 ± 5.1 J/K/mol
same,molar heat capacity at constant pressure,[1]; 342.08 K,661.2 ± 5.1 J/K/mol
same,molar heat capacity at constant pressure,[1]; 349.25 K,664.5 ± 5.1 J/K/mol
same,molar heat capacity at constant pressure,[1]; 352.2 K,667.1 ± 5.2 J/K/mol
same,molar heat capacity at constant pressure,[1]; 356.83 K,668 ± 5.2 J/K/mol
same,molar heat capacity at constant pressure,[1]; 361.28 K,670.1 ± 5.2 J/K/mol
same,molar heat capacity at constant pressure,[1]; 366.35 K,672.4 ± 5.2 J/K/mol
same,molar heat capacity at constant pressure,[1]; 370.25 K,674.2 ± 5.2 J/K/mol
same,molar heat capacity at constant pressure,[1]; 375.43 K,676.6 ± 5.2 J/K/mol
same,molar heat capacity at constant pressure,[1]; 380.95 K,679.1 ± 5.3 J/K/mol
same,molar heat capacity at constant pressure,[1]; 388.65 K,682.5 ± 5.3 J/K/mol
same,molar heat capacity at constant pressure,[1]; 391.43 K,684 ± 5.3 J/K/mol
same,molar heat capacity at constant pressure,[1]; 399.84 K,687.9 ± 5.3 J/K/mol
same,molar heat capacity at constant pressure,[1]; 401.55 K,688.6 ± 5.3 J/K/mol
same,molar heat capacity at constant pressure,[1]; 407.15 K,691.2 ± 5.4 J/K/mol
same,molar heat capacity at constant pressure,[1]; 412.77 K,693.8 ± 5.4 J/K/mol
same,molar heat capacity at constant pressure,[1]; 419.95 K,697.1 ± 5.4 J/K/mol
same,molar heat capacity at constant pressure,[1]; 425.95 K,698.5 ± 5.4 J/K/mol
same,molar heat capacity at constant pressure,[1]; 433.28 K,703.2 ± 5.4 J/K/mol
same,molar heat capacity at constant pressure,[1]; 439.98 K,706.3 ± 5.5 J/K/mol
same,molar heat capacity at constant pressure,[1]; 444.9 K,709.2 ± 5.5 J/K/mol
same,molar heat capacity at constant pressure,[1]; 452.4 K,711.9 ± 5.5 J/K/mol
same,molar heat capacity at constant pressure,[1]; 463.15 K,716.9 ± 5.6 J/K/mol
same,molar heat capacity at constant pressure,[1]; 469.05 K,719.5 ± 5.6 J/K/mol
same,molar heat capacity at constant pressure,[1]; 473.15 K,721.5 ± 5.6 J/K/mol
same,surface tension liquid-gas,[2]; 293.15 K,18.04 ± 0.16 mN/m
same,viscosity,[2]; 293.15 K,4.28 ± 0.13 mPa·s
same,mass density,[2]; 295.05 K,956.75 ± 0.75 kg/m3
same,viscosity,[2]; 298.15 K,3.87 ± 0.12 mPa·s
same,thermal conductivity,[2]; 298.15 K,0.1255 ± 0.0005 W/m/K
same,mass density,[2]; 300.1 K,951.14 ± 0.78 kg/m3
same,surface tension liquid-gas,[2]; 303.15 K,17.4 ± 0.16 mN/m
same,viscosity,[2]; 303.15 K,3.48 ± 0.11 mPa·s
same,mass density,[2]; 303.95 K,946.93 ± 0.81 kg/m3
same,mass density,[2]; 310.3 K,939.94 ± 0.85 kg/m3
same,surface tension liquid-gas,[2]; 313.15 K,16.71 ± 0.16 mN/m
same,viscosity,[2]; 313.15 K,2.82 ± 0.09 mPa·s
same,mass density,[2]; 313.17 K,936.67 ± 0.87 kg/m3
same,mass density,[2]; 320.5 K,928.72 ± 0.92 kg/m3
same,surface tension liquid-gas,[2]; 323.15 K,15.99 ± 0.15 mN/m
same,viscosity,[2]; 323.15 K,2.38 ± 0.07 mPa·s
same,mass density,[2]; 325.6 K,923.12 ± 0.96 kg/m3
same,viscosity,[2]; 332.95 K,2.02 ± 0.06 mPa·s
same,surface tension liquid-gas,[2]; 333.15 K,15.42 ± 0.15 mN/m
same,mass density,[2]; 333.15 K,915.02 ± 1 kg/m3
same,mass density,[2]; 340.9 K,906.3 ± 1.1 kg/m3
same,surface tension liquid-gas,[2]; 343.15 K,14.67 ± 0.15 mN/m
same,viscosity,[2]; 343.15 K,1.71 ± 0.05 mPa·s
same,thermal conductivity,[2]; 343.15 K,0.1186 ± 0.0005 W/m/K
same,mass density,[2]; 346.05 K,900.69 ± 1.1 kg/m3
same,vapor or sublimation pressure,[2]; 348.23 K,0.703 ± 0.08 kPa
same,vapor or sublimation pressure,[2]; 350.87 K,0.801 ± 0.08 kPa
same,vapor or sublimation pressure,[2]; 351.11 K,0.82 ± 0.08 kPa
same,mass density,[2]; 353.1 K,892.8 ± 1.1 kg/m3
same,surface tension liquid-gas,[2]; 353.15 K,13.98 ± 0.14 mN/m
same,viscosity,[2]; 353.15 K,1.48 ± 0.05 mPa·s
same,vapor or sublimation pressure,[2]; 355.91 K,1.103 ± 0.08 kPa
same,vapor or sublimation pressure,[2]; 357.29 K,1.207 ± 0.08 kPa
same,vapor or sublimation pressure,[2]; 361.2 K,1.468 ± 0.081 kPa
same,surface tension liquid-gas,[2]; 363.15 K,13.3 ± 0.14 mN/m
same,mass density,[2]; 366.4 K,878.24 ± 1.2 kg/m3
same,vapor or sublimation pressure,[2]; 370.08 K,2.381 ± 0.081 kPa
same,surface tension liquid-gas,[2]; 373.15 K,12.64 ± 0.14 mN/m
same,mass density,[2]; 373.15 K,870.77 ± 1.3 kg/m3
same,viscosity,[2]; 373.15 K,1.11 ± 0.04 mPa·s
same,vapor or sublimation pressure,[2]; 374.37 K,2.913 ± 0.081 kPa
same,vapor or sublimation pressure,[2]; 377.85 K,3.452 ± 0.081 kPa
same,vapor or sublimation pressure,[2]; 378.07 K,3.482 ± 0.081 kPa
same,vapor or sublimation pressure,[2]; 380.74 K,3.901 ± 0.082 kPa
same,mass density,[2]; 381.7 K,861.4 ± 1.4 kg/m3
same,mass density,[2]; 391.9 K,850.17 ± 1.4 kg/m3
same,surface tension liquid-gas,[2]; 393.15 K,11.28 ± 0.13 mN/m
same,viscosity,[2]; 393.15 K,0.86 ± 0.03 mPa·s
same,vapor or sublimation pressure,[2]; 394.66 K,7.191 ± 0.083 kPa
same,mass density,[2]; 397 K,844.55 ± 1.5 kg/m3
same,vapor or sublimation pressure,[2]; 398.63 K,8.45 ± 0.084 kPa
same,vapor or sublimation pressure,[2]; 402.72 K,9.938 ± 0.084 kPa
same,mass density,[2]; 407.2 K,833.32 ± 1.6 kg/m3
same,vapor or sublimation pressure,[2]; 412.81 K,14.52 ± 0.086 kPa
same,surface tension liquid-gas,[2]; 413.15 K,9.93 ± 0.12 mN/m
same,mass density,[2]; 413.15 K,826.73 ± 1.6 kg/m3
same,viscosity,[2]; 413.15 K,0.69 ± 0.02 mPa·s
same,vapor or sublimation pressure,[2]; 416.46 K,16.55 ± 0.088 kPa
same,mass density,[2]; 417.4 K,822.08 ± 1.6 kg/m3
same,mass density,[2]; 422.5 K,816.45 ± 1.7 kg/m3
same,vapor or sublimation pressure,[2]; 423.94 K,21.39 ± 0.09 kPa
same,vapor or sublimation pressure,[2]; 432.91 K,28.6 ± 0.093 kPa
same,surface tension liquid-gas,[2]; 433.15 K,8.57 ± 0.12 mN/m
same,mass density,[2]; 433.15 K,804.71 ± 1.8 kg/m3
same,vapor or sublimation pressure,[2]; 439.98 K,35.47 ± 0.097 kPa
same,mass density,[2]; 442.9 K,793.98 ± 1.9 kg/m3
same,vapor or sublimation pressure,[2]; 448.41 K,45.28 ± 0.1 kPa
same,mass density,[2]; 453.15 K,782.6 ± 2 kg/m3
same,viscosity,[2]; 453.15 K,0.46 ± 0.02 mPa·s
same,vapor or sublimation pressure,[2]; 455.39 K,54.85 ± 0.11 kPa
same,vapor or sublimation pressure,[2]; 462.39 K,66.09 ± 0.11 kPa
same,viscosity,[2]; 473.15 K,0.39 ± 0.02 mPa·s
same,vapor or sublimation pressure,[2]; 479.53 K,100.9 ± 0.13 kPa
same,viscosity,[2]; 493.15 K,0.33 ± 0.01 mPa·s

# From the NIST ThermoML archive (doi:10.1021/je050173+)
